Measurements from patent US5112519A, “Process for production of biodegradable surfactants and compositions thereof” (Mobil Oil Corporation, priority 1989, dated 1992).

Assays:
[1] = Soil removal, unbuilt household liquid laundry detergent, carbon black/oil; conditions: 100° F.
Text: (§1) Applicants blend three unbuilt household detergents differing only in the surfactant. Either Mobil's tridecanol-9 mole-ethoxylate, Shell's C12-15 -alcohol-9 mole-ethoxylate, or Vista's dodecylbenzenesulfonic acid sodium salt are used. All contain triethanolamine to make the wash liquor basic. This type formulation magnifies surfactant differences because it lacks a builder to extend the surfactant and soften hard water.
(§2) Testing Methods. This study uses two artificial soils on three test fabrics. Carbon black in an oil matrix simulates particulate soil, and sebum/dust simulates oily soil. Test Fabrics Inc. (Middlesex, N.J.) prints these soils on 100% cotton, 65/35 polyester/cotton with permanent press finish, and 100% polyester fabrics.
(§3) U.S. Testing Company did the fabric washing and drying under carefully controlled conditions. A Terg-O-Tometer washes using a 15 minute wash time. Conditions are 100 rpm agitation speed, 130° F. for the industrial detergents and 100° F. for the household detergents. They made wash and rinse water to 150 ppm hardness (U.S. national average), and washes six 3×4 inch test swatches per liter of solution. They rinse each load twice for five minutes. After washing and rinsing, the swatches are dried in an electric dryer, and ironed with a warm iron to remove wrinkles. All samples are run in triplicate.
(§4) White light reflectance, taken before and after washing, measures soil removal. A green filter cut out the effect of artificial brighteners. They measure soil redoposition by taking reflectance readings of fabric margins (areas not printed with soil) before and after washing. […] However, the reflectance technique more closely measures soil removal from the fabric surface, what the consumer sees.

[2] = Soil removal, phosphorous built industrial liquid laundry detergent, carbon black/oil; conditions: 130° F.
Text: (§5) In contrast, the three industrial detergents contained a high performance builder package, and dodecylbenzenesulfonic acid sodium salt. Two of the three also contain an AE, either tridecanol-9-mole-ethoxylate or C12-15 -alcohol-9 mole-ethoxylate. Many commercial detergents use combinations of LABS and AE's to balance performance and cost. LABS remove particulates well and lower overall surfactant cost while AE's effectively remove oily soils. The surfactant concentrations in all three are equal (i.e., the detergent without AE had more LABS) excepting the detergent using Mobil's AE. Its concentration is not increased to offset a contaminant, 7 wt % polyethylene glycol. The builder in all three detergents contained tetrapotassium pyrophosphate, sodium metasilicate, potassium hydroxide, and carboxymethylcellulose.
as §2, §3
(§6) White light reflectance, taken before and after washing, measures soil removal. A green filter cut out the effect of artificial brighteners. They measure soil redoposition by taking reflectance readings of fabric margins (areas not printed with soil) before and after washing. […]

[3] = Soil removal, phosphorous built industrial liquid laundry detergent, sebum/dust; conditions: 130° F.
Text: as §5, §2, §3, §6

[4] = Soil removal, unbuilt household liquid laundry detergent, sebum/dust; conditions: 100° F.
Text: as §1, §2, §3, §4

dodecylbenzenesulfonic acid sodium salt [Vista LABS]
Percent Soil Removal ([1]; Cotton): 36% | Percent Soil Removal ([1]; Polyester): 40% | Percent Soil Removal ([1]; Polyester/Cotton): 31% | Percent Soil Removal ([2]; Cotton): 52% | Percent Soil Removal ([2]; Polyester): 29% | Percent Soil Removal ([2]; Polyester/Cotton): 34% | Percent Soil Removal ([3]; Cotton): 60% | Percent Soil Removal ([3]; Polyester): 39% | Percent Soil Removal ([3]; Polyester/Cotton): 82% | Percent Soil Removal ([4]; Cotton): 36% | Percent Soil Removal ([4]; Polyester): 19% | Percent Soil Removal ([4]; Polyester/Cotton): 45%
